Results published in PubChem BioAssay AID1963432 (Molecular Pharmacology Branch, DTP, NCI, 2024).

Test system: SYO-1 complex spheroid growth, percent test/control
Test: Anticancer human tumor SYO-1 cell line growth inhibition [Asc];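 also: compound exposure lasted 7 days after spheroids grew 3 days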;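 as to viability, T/C: 100% = DMSO vehicle control viability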
Conditions: for IC50: curve of first compound; for viability, T/C: stronger effect = lower value
How it was run: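 Concentration series start at each agent's clinical Cmax, or at 10 microM when none is established, and drop in half-log steps; agents are applied alone or together to complex spheroids built with HUVEC and hMSC.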

C=CC(=O)N1CCN(c2nc(=O)n(-c3c(C)ccnc3C(C)C)c3nc(-c4c(O)cccc4F)c(F)cc23)C(C)C1 (centres undefined) + CCN1C(C(=O)NC23CCC(C(=O)O)(CC2)CC3)C(c2cccc(Cl)c2F)C2(C(=O)Nc3cc(Cl)ccc32)C12CCCCC2
IC50 (second compound 0.00949 µM): > 10000 nM
IC50 (second compound 0.03 µM): > 10000 nM
IC50 (second compound 0.0949 µM): > 10000 nM
IC50 (second compound 0.3 µM): < 31.6 nM
IC50 (second compound 0.949 µM): < 31.6 nM
IC50 (second compound 3 µM): < 31.6 nM
viability, T/C (second compound 0.00949 µM, first compound 0.0316 µM): 101%
viability, T/C (second compound 0.00949 µM, first compound 0.1 µM): 104%
viability, T/C (second compound 0.00949 µM, first compound 0.316 µM): 103%
viability, T/C (second compound 0.00949 µM, first compound 1 µM): 103%
viability, T/C (second compound 0.00949 µM, first compound 3.16 µM): 92%
viability, T/C (second compound 0.00949 µM, first compound 10 µM): 89.1%
viability, T/C (second compound 0.03 µM, first compound 0.0316 µM): 98%
viability, T/C (second compound 0.03 µM, first compound 0.1 µM): 94.7%
viability, T/C (second compound 0.03 µM, first compound 0.316 µM): 96.7%
viability, T/C (second compound 0.03 µM, first compound 1 µM): 103%
viability, T/C (second compound 0.03 µM, first compound 3.16 µM): 97.6%
viability, T/C (second compound 0.03 µM, first compound 10 µM): 81.8%
viability, T/C (second compound 0.0949 µM, first compound 0.0316 µM): 78.5%
viability, T/C (second compound 0.0949 µM, first compound 0.1 µM): 84%
viability, T/C (second compound 0.0949 µM, first compound 0.316 µM): 76.7%
viability, T/C (second compound 0.0949 µM, first compound 1 µM): 79.4%
viability, T/C (second compound 0.0949 µM, first compound 3.16 µM): 75.9%
viability, T/C (second compound 0.0949 µM, first compound 10 µM): 56.2%
viability, T/C (second compound 0.3 µM, first compound 0.0316 µM): 29.8%
viability, T/C (second compound 0.3 µM, first compound 0.1 µM): 25.3%
viability, T/C (second compound 0.3 µM, first compound 0.316 µM): 25.2%
viability, T/C (second compound 0.3 µM, first compound 1 µM): 20.8%
viability, T/C (second compound 0.3 µM, first compound 3.16 µM): 21.3%
viability, T/C (second compound 0.3 µM, first compound 10 µM): 12.2%
viability, T/C (second compound 0.949 µM, first compound 0.0316 µM): 3.03%
viability, T/C (second compound 0.949 µM, first compound 0.1 µM): 4.04%
viability, T/C (second compound 0.949 µM, first compound 0.316 µM): 2.34%
viability, T/C (second compound 0.949 µM, first compound 1 µM): 2.88%
viability, T/C (second compound 0.949 µM, first compound 3.16 µM): 2.48%
viability, T/C (second compound 0.949 µM, first compound 10 µM): 2.88%
viability, T/C (second compound 3 µM, first compound 0.0316 µM): 1.34%
viability, T/C (second compound 3 µM, first compound 0.1 µM): 1.23%
viability, T/C (second compound 3 µM, first compound 0.316 µM): 1.3%
viability, T/C (second compound 3 µM, first compound 1 µM): 1.29%
viability, T/C (second compound 3 µM, first compound 3.16 µM): 1.12%
viability, T/C (second compound 3 µM, first compound 10 µM): 1.29%

NC(=O)C(=Cn1cnc(-c2cc(C(F)(F)F)cc(C(F)(F)F)c2)n1)c1cncnc1 + Cc1c(S(C)(=O)=O)c(-c2cc(F)cc(N3CCN(c4ccc(NS(=O)(=O)c5ccc(NC(CCN6CCC(C(=O)OCCCP(=O)(O)O)CC6)CSc6ccccc6)c(S(=O)(=O)C(F)(F)F)c5)cc4)CC3)c2)c(-c2ccc(Cl)cc2)n1C(C)C
IC50 (second compound 0.0316 µM): 170 nM
IC50 (second compound 0.1 µM): 165 nM
IC50 (second compound 0.316 µM): 159 nM
IC50 (second compound 1 µM): 155 nM
IC50 (second compound 3.16 µM): 148 nM
IC50 (second compound 10 µM): 110 nM
viability, T/C (second compound 0.0316 µM, first compound 0.000949 µM): 98.1%
viability, T/C (second compound 0.0316 µM, first compound 0.003 µM): 102%
viability, T/C (second compound 0.0316 µM, first compound 0.00949 µM): 86.8%
viability, T/C (second compound 0.0316 µM, first compound 0.03 µM): 93.8%
viability, T/C (second compound 0.0316 µM, first compound 0.0949 µM): 96.3%
viability, T/C (second compound 0.0316 µM, first compound 0.3 µM): 5.53%
viability, T/C (second compound 0.1 µM, first compound 0.000949 µM): 97.6%
viability, T/C (second compound 0.1 µM, first compound 0.003 µM): 94%
viability, T/C (second compound 0.1 µM, first compound 0.00949 µM): 89.9%
viability, T/C (second compound 0.1 µM, first compound 0.03 µM): 93.9%
viability, T/C (second compound 0.1 µM, first compound 0.0949 µM): 95.7%
viability, T/C (second compound 0.1 µM, first compound 0.3 µM): 2.56%
viability, T/C (second compound 0.316 µM, first compound 0.000949 µM): 95%
viability, T/C (second compound 0.316 µM, first compound 0.003 µM): 94.8%
viability, T/C (second compound 0.316 µM, first compound 0.00949 µM): 92.9%
viability, T/C (second compound 0.316 µM, first compound 0.03 µM): 92.8%
viability, T/C (second compound 0.316 µM, first compound 0.0949 µM): 89.1%
viability, T/C (second compound 0.316 µM, first compound 0.3 µM): 1.51%
viability, T/C (second compound 1 µM, first compound 0.000949 µM): 101%
viability, T/C (second compound 1 µM, first compound 0.003 µM): 91.2%
viability, T/C (second compound 1 µM, first compound 0.00949 µM): 86%
viability, T/C (second compound 1 µM, first compound 0.03 µM): 90.8%
viability, T/C (second compound 1 µM, first compound 0.0949 µM): 86.5%
viability, T/C (second compound 1 µM, first compound 0.3 µM): 0.55%
viability, T/C (second compound 3.16 µM, first compound 0.000949 µM): 91.2%
viability, T/C (second compound 3.16 µM, first compound 0.003 µM): 87.3%
viability, T/C (second compound 3.16 µM, first compound 0.00949 µM): 84%
viability, T/C (second compound 3.16 µM, first compound 0.03 µM): 86.3%
viability, T/C (second compound 3.16 µM, first compound 0.0949 µM): 81.3%
viability, T/C (second compound 3.16 µM, first compound 0.3 µM): 0.31%
viability, T/C (second compound 10 µM, first compound 0.000949 µM): 89%
viability, T/C (second compound 10 µM, first compound 0.003 µM): 76.8%
viability, T/C (second compound 10 µM, first compound 0.00949 µM): 75.6%
viability, T/C (second compound 10 µM, first compound 0.03 µM): 67.2%
viability, T/C (second compound 10 µM, first compound 0.0949 µM): 61.6%
viability, T/C (second compound 10 µM, first compound 0.3 µM): 0.38%
